Test results from ChEMBL document CHEMBL1154070, “QSAR study of Akt/protein kinase B (PKB) inhibitors using support vector machine” (Eur J Med Chem, 2009).

Target: RAC-alpha serine/threonine-protein kinase (Homo sapiens, UniProt P31749)
Test: Inhibition of Akt

Chain of RAC-alpha serine/threonine-protein kinase (P31749 whole entry): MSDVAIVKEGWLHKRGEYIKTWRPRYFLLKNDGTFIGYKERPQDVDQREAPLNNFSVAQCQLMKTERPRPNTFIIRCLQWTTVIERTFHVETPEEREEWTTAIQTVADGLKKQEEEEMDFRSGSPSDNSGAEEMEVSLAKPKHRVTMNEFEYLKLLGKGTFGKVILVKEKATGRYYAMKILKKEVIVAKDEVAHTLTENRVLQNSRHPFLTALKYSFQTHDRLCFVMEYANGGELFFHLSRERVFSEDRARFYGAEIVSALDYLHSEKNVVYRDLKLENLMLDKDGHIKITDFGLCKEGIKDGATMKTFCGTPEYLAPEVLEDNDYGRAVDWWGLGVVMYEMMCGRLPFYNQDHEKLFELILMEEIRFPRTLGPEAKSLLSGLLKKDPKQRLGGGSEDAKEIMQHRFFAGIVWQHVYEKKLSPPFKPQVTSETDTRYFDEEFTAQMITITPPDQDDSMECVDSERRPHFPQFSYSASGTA

In order of falling IC50:
1. CC(C)c1nc(-c2ccccc2)c(-c2ccc(CN3CCC(n4c(=O)[nH]c5ccccc54)CC3)cc2)[nH]c1=O  21200 nM
2. O=C1C(Nc2cc(F)ccc2F)=C(Cl)C(=O)c2[nH]ncc21  16000 nM
3. O=C1C(Sc2cccc(Cl)c2Cl)=C(Cl)C(=O)c2[nH]ncc21  12300 nM
4. C(=C\c1cncc(OCC2CCN2)c1)/c1ccncc1 (stereo unspecified)  10900 nM
5. N[C@H](COc1cncc(-c2ccc(CO)cc2)c1)Cc1c[nH]c2ccccc12  4020 nM
6. N[C@H](COc1cncc(NC(=O)c2ccncc2)c1)Cc1c[nH]c2ccccc12  2020 nM
7. N[C@H](COc1cncc(-c2ccc3[nH]nc(C=O)c3c2)c1)Cc1c[nH]c2ccccc12  1850 nM
8. N[C@H](COc1cncc(C(=O)Nc2ccncc2)c1)Cc1c[nH]c2ccccc12  1660 nM
9. Cc1n[nH]c2cnc(-c3cncc(OC[C@@H](N)Cc4cccc(OCC5CCCCC5)c4)c3)cc12  1360 nM
10. N[C@H](COc1cncc(-c2ccc3ccccc3c2)c1)Cc1c[nH]c2ccccc12  1120 nM
11. N[C@H](COc1cncc(-c2ccc(NC(=O)Nc3ccccc3)cn2)c1)Cc1c[nH]c2ccccc12  1120 nM
12. N[C@H](COc1cncc(-c2ccc3c(=O)[nH]ccc3c2)c1)Cc1c[nH]c2ccccc12  1020 nM
13. Cn1cc(C(CN)Oc2cncc(/C=C/c3ccncc3)c2)c2ccccc21 (stereo unspecified)  760 nM
14. Cc1n[nH]c2cnc(-c3cncc(OC[C@@H](N)Cc4cccc(OCCN5CCOCC5)c4)c3)cc12  751 nM
15. N[C@H](COc1cncc(-c2cccc3cnccc23)c1)Cc1c[nH]c2ccccc12  331 nM
16. N[C@H](COc1cncc(-c2ccc3ncccc3c2)c1)Cc1c[nH]c2ccccc12  312 nM
17. N[C@H](COc1cncc(/C=C/c2ccncc2)c1)C(c1ccccc1)c1ccccc1  273 nM
18. N[C@H](COc1cncc(-c2ccncc2)c1)Cc1c[nH]c2ccccc12  245 nM
19. N[C@H](COc1cncc(-c2ccc3nnccc3c2)c1)Cc1c[nH]c2ccccc12  215 nM
20. N[C@H](COc1cncc(CCc2ccncc2)c1)Cc1c[nH]c2ccccc12  210 nM
21. Nc1nccc2cc(-c3cncc(OC[C@@H](N)Cc4c[nH]c5ccccc45)c3)ccc12  188 nM
22. N[C@H](COc1cncc(-c2cc3ccncc3s2)c1)Cc1c[nH]c2ccccc12  179 nM
23. N[C@H](COc1cncc(-c2ccc3c(c2)C(c2c[nH]c4ccccc24)C(=O)N3)c1)Cc1c[nH]c2ccccc12 (stereo partly specified)  153 nM
24. N[C@H](COc1cncc(-c2ccc3[nH]c(=O)sc3c2)c1)Cc1c[nH]c2ccccc12  99 nM
25. CC(C)=C1C(=O)Nc2ccc(-c3cncc(OC[C@@H](N)Cc4c[nH]c5ccccc45)c3)cc21  80 nM
26. N[C@H](CNc1cnc(Cl)c(/C=C/c2ccncc2)c1)Cc1c[nH]c2ccccc12  79 nM
27. Cc1n[nH]c2cnc(-c3cncc(OC[C@@H](N)Cc4c(F)cccc4F)c3)cc12  65.5 nM
28. O=c1[nH]c2ccccc2n1C1CCN(Cc2ccc(-c3nc4ccc(-n5cnnn5)cc4nc3-c3ccccc3)cc2)CC1  63 nM
29. CCC1C(=O)Nc2ccc(-c3cncc(OC[C@@H](N)Cc4c[nH]c5ccccc45)c3)cc21 (stereo partly specified)  52.7 nM
30. Cc1n[nH]c2cnc(-c3cncc(OC[C@@H](N)Cc4cccc(OCCN)c4)c3)cc12  47 nM
31. CCc1c(C)[nH]c(C2C(=O)Nc3ccc(-c4cncc(OC[C@@H](N)Cc5c[nH]c6ccccc56)c4)cc32)c1C (stereo partly specified)  40.3 nM
32. Cc1cc(C)c(C[C@H](N)COc2cncc(-c3cc4c(C)n[nH]c4cn3)c2)c(C)c1  39 nM
33. O=c1[nH]c2ccccc2n1C1CCN(Cc2ccc(-c3nc4cc(-n5cnnn5)ccc4nc3-c3ccccc3)cc2)CC1  20 nM
34. Cc1n[nH]c2cnc(-c3cncc(OC[C@@H](N)Cc4ccc(C(F)(F)F)cc4)c3)cc12  18 nM
35. N[C@H](COc1cncc(-c2ccc3[nH]nc(N4CCOCC4)c3c2)c1)Cc1c[nH]c2ccccc12  18 nM
36. CN(C)c1n[nH]c2ccc(-c3cncc(OC[C@@H](N)Cc4c[nH]c5ccccc45)c3)cc12  18 nM
37. N[C@H](COc1cncc(-c2ccc3c(c2)CC(=O)N3)c1)Cc1ccccc1  16 nM
38. Cc1n[nH]c2cnc(-c3cncc(OC[C@@H](N)Cc4ccccc4)c3)cc12  14 nM
39. Cc1n[nH]c2cnc(-c3cncc(OC[C@@H](N)Cc4cccc5c4OC(F)(F)O5)c3)cc12  14 nM
40. Cc1n[nH]c2cnc(-c3cncc(OC[C@@H](N)Cc4ccc(F)c(F)c4F)c3)cc12  12 nM
41. N[C@H](COc1cncc(-c2ccc3c(c2)C(c2cccnc2)C(=O)N3)c1)Cc1c[nH]c2ccccc12 (stereo partly specified)  10.4 nM
42. N[C@H](COc1cncc(-c2ccc3c(c2)C(c2ccccn2)C(=O)N3)c1)Cc1c[nH]c2ccccc12 (stereo partly specified)  10.3 nM
43. Cc1cc(C2C(=O)Nc3ccc(-c4cncc(OC[C@@H](N)Cc5c[nH]c6ccccc56)c4)cc32)oc1C (stereo partly specified)  10 nM
44. N[C@H](COc1cncc(-c2ccc3[nH]nc(-c4nccs4)c3c2)c1)Cc1c[nH]c2ccccc12  9.8 nM
45. Cc1n[nH]c2cnc(-c3cncc(OC[C@@H](N)Cc4cccc(F)c4)c3)cc12  8.4 nM
46. Cn1cccc1C1C(=O)Nc2ccc(-c3cncc(OC[C@@H](N)Cc4c[nH]c5ccccc45)c3)cc21 (stereo partly specified)  8.2 nM
47. N[C@H](COc1cncc(-c2cnc3c(c2)CC(=O)N3)c1)Cc1c[nH]c2ccccc12  7.4 nM
48. N[C@H](COc1cncc(-c2ccc3c(c2)C(c2ncc[nH]2)C(=O)N3)c1)Cc1c[nH]c2ccccc12 (stereo partly specified)  7.2 nM
49. Cc1n[nH]c2cnc(-c3cncc(OC[C@@H](N)Cc4cccc(OCC5CCNCC5)c4)c3)cc12  6.8 nM
50. Cc1cc(F)ccc1C[C@H](N)COc1cncc(-c2cc3c(C)n[nH]c3cn2)c1  6 nM
51. N[C@H](COc1cncc(-c2ccc3c(c2)C(c2ccccc2)C(=O)N3)c1)Cc1c[nH]c2ccccc12 (stereo partly specified)  5.9 nM
52. N[C@H](COc1cncc(-c2ccc3c(c2)C(=O)C(=O)N3)c1)Cc1c[nH]c2ccccc12  5.4 nM
53. Cc1n[nH]c2cnc(-c3cncc(OC[C@@H](N)Cc4ccc(Br)cc4)c3)cc12  5 nM
54. CC1C(=O)Nc2ccc(-c3cncc(OC[C@@H](N)Cc4c[nH]c5ccccc45)c3)cc21 (stereo partly specified)  4 nM
55. N[C@H](COc1cncc(-c2ccc3[nH]nc(-c4ccccc4)c3c2)c1)Cc1c[nH]c2ccccc12  3.9 nM
56. Cc1ccc(F)cc1C[C@H](N)COc1cncc(-c2cc3c(C)n[nH]c3cn2)c1  3.9 nM
57. N[C@H](COc1cncc(-c2ccc3c(c2)C(C2CC2)C(=O)N3)c1)Cc1c[nH]c2ccccc12 (stereo partly specified)  3.3 nM
58. Nc1n[nH]c2ccc(-c3cncc(OC[C@@H](N)Cc4c[nH]c5ccccc45)c3)cc12  2.9 nM
59. N[C@H](COc1cncc(-c2ccc3[nH]nc(C4CC4)c3c2)c1)Cc1c[nH]c2ccccc12  2.6 nM
60. Cc1cc(C[C@H](N)COc2cncc(-c3cc4c(C)n[nH]c4cn3)c2)ccc1F  2.5 nM
61. N[C@H](COc1cncc(-c2ccc3c(c2)C(c2ccc[nH]2)C(=O)N3)c1)Cc1c[nH]c2ccccc12 (stereo partly specified)  1.5 nM
62. N[C@H](COc1cncc(-c2ccc3c(c2)C(F)(F)C(=O)N3)c1)Cc1c[nH]c2ccccc12  1.5 nM
63. N[C@H](COc1cncc(-c2ccc3c(c2)C(Cc2ccco2)C(=O)N3)c1)Cc1ccccc1 (stereo partly specified)  1.4 nM
64. N[C@H](COc1cncc(-c2ccc3[nH]nc(-c4cccs4)c3c2)c1)Cc1c[nH]c2ccccc12  1.3 nM
65. N[C@H](COc1cncc(-c2ccc3[nH]nc(-c4ccc[nH]4)c3c2)c1)Cc1c[nH]c2ccccc12  1.2 nM
66. CCc1n[nH]c2ccc(-c3cncc(OC[C@@H](N)Cc4c[nH]c5ccccc45)c3)cc12  1.15 nM
67. N[C@H](COc1cncc(-c2ccc3c(c2)C(c2cccs2)C(=O)N3)c1)Cc1c[nH]c2ccccc12 (stereo partly specified)  0.9 nM
68. CCc1ncc(OC[C@@H](N)Cc2c[nH]c3ccccc23)cc1-c1ccc2cnccc2c1  0.8 nM
69. Cc1ccc(C2C(=O)Nc3ccc(-c4cncc(OC[C@@H](N)Cc5c[nH]c6ccccc56)c4)cc32)o1 (stereo partly specified)  0.7 nM
70. N[C@H](COc1cncc(-c2ccc3c(c2)/C(=C/c2ccc[nH]2)C(=O)N3)c1)Cc1ccccc1  0.6 nM
71. N[C@H](COc1cncc(-c2ccc3c(c2)C(c2ccco2)C(=O)N3)c1)Cc1c[nH]c2ccccc12 (stereo partly specified)  0.17 nM
